According to patent US20040171616A9, “Polycyclic aryl and heteroaryl substituted 1,4-quinones useful for selective inhibition of the coagulation cascade” (priority 2000, published 2004):

How the values were obtained:
[1] = target: T1, recombinant soluble tissue factor and recombinant human factor VIIa (Homo sapiens, UniProt P08709); assay: TF-VIIa Assay; assay type: biochemical; details: chromogenic substrate, 60 min at room temperature, OD 405 nm
T1 construct: purchased American Diagnostica, Greenwich Conn; (factor VIIa); host or cells: soluble TF made in house in E. coli

[2] = target: T2, human factor Xa (Homo sapiens, UniProt P00742); assay: Xa Assay; assay type: biochemical; details: percent inhibition of Xa activity; test concentration not given; 60 min
T2 construct: purchased Enzyme Research Laboratories, South Bend Ind
T2 sequence (P00742 235-488 limits assumed): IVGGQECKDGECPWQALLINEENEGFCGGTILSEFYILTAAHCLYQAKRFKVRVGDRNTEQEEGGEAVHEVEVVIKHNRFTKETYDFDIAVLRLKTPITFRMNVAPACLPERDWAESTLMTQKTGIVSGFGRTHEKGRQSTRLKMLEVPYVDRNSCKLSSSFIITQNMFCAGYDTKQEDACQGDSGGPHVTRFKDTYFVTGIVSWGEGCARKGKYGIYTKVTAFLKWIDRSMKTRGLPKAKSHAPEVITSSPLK
T2 sequence (P00742 41-179 limits assumed): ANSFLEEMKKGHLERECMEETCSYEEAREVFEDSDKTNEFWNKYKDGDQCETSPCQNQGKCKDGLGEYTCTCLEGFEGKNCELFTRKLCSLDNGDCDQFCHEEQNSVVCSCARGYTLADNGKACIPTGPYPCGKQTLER

T1 sequence (P08709 213-466 limits assumed): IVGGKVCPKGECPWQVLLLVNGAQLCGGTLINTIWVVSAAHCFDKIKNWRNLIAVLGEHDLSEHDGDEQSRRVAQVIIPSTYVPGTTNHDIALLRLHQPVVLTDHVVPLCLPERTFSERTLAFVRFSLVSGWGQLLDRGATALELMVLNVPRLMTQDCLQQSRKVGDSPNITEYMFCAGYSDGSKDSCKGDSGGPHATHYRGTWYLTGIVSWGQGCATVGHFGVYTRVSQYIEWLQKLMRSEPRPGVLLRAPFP
T1 sequence (P08709 61-212 limits assumed): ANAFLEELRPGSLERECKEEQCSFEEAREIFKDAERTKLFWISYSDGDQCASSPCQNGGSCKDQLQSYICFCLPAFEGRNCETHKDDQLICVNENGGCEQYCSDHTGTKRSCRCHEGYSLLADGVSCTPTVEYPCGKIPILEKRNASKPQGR
T1 sequence (P13726 33-251 partner limits assumed): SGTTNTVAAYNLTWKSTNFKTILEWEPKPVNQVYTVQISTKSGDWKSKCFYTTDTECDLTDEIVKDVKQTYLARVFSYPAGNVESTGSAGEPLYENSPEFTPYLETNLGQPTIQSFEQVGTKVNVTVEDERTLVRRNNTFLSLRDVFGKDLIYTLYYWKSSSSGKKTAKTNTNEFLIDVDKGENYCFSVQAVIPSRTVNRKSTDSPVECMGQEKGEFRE

TF-VIIA IC50 [1]: 13 µM
Factor Xa (cell printed as %, in the IC50 column) [2]: 13%
SMILES: N=C(N)c1ccc(CNC(=O)CC2=C(c3ccccc3)C(=O)C=C(NCCc3ccccc3)C2=O)cc1 [Example 2]
